Values of other authors in patent US6797806B2, “Fragments of CR1 and their use” (AdProTech Limited, priority 1996, dated 2004).

Columns and labels:
[1] = in vivo
[2] = systemic inhibition of CA over 6 days
[3] = in vivo; remark: listed apart in the source
[4] = system: myeloperoxidase activity (an indicator of neutrophil accumulation); conditions: rat
[5] = in vivo; remark: listed apart in the source

## sCR1: soluble CR1 construct, complement inhibitor, molecular weight 245 kilodaltons
[1]
  post-ischemic myocardial inflammation and necrosis: suppressed
[2]
  CNS inflammation, demyelination and deposition of complement components: blocked
  clinical score: improvements in clinical score
[3]
  survival rates following transplantation: extended survival rates
[4]
  myeloperoxidase activity following traumatic injury: reduce myeloperoxidase activity
[5]
  activity in a reversed passive Arthus reaction: demonstrated in vivo activity
